The record followed here is patent US20240228482A1, “COMPOUNDS, COMPOSITIONS AND METHODS OF TREATING CANCER” (HOTSPOT THERAPEUTICS, INC., priority 2021, published 2024).

Structures are written as SMILES. Where only a bound is given, the exact number is not on record here.

The experiment concerns the target T1, CBL-B (Homo sapiens, UniProt Q13191).
T1 construct: GST
As to the kind of experiment: CBL-B TR-FRET IC50 screening (E1/E2 ubiquitination, Biotin-Ubiquitin, Anti GST-Tb donor / Streptavidin-d2 acceptor). The following applies: CBL-B 10 nM final; 11-point titration from 100 uM; binned A-F; read-out: CBL-B TR-FRET activity IC50. It counts as biochemical. Background: TR-FRET usually uses a lanthanide donor and a delayed reading to cut background.

T1 sequence (Q13191 whole entry): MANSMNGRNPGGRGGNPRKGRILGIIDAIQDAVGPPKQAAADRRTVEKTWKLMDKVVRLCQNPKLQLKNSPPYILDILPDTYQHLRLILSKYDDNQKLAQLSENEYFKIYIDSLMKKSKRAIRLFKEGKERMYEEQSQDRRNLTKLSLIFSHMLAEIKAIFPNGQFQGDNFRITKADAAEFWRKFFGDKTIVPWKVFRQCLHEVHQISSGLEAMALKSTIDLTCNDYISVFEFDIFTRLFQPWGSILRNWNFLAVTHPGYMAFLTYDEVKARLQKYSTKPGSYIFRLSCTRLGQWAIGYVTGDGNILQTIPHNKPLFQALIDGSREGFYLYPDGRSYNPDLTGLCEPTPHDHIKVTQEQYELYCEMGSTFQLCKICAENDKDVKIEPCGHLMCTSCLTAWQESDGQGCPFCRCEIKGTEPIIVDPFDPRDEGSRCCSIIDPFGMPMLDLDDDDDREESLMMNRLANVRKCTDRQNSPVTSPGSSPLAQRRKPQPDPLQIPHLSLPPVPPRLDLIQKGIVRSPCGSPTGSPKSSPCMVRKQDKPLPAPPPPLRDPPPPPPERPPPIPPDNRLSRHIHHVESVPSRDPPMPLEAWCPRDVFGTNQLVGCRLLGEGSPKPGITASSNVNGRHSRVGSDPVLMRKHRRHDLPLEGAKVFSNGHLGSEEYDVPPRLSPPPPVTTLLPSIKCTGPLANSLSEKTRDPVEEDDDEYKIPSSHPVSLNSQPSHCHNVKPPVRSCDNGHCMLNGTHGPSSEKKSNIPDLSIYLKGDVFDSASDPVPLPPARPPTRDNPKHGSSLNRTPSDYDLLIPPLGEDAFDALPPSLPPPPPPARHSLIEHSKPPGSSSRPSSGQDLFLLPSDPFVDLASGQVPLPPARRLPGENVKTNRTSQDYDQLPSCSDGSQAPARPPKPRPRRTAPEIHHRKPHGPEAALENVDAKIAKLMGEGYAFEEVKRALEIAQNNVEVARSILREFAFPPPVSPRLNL

Broadly, the IC50 is the concentration that inhibits the measured activity by half. Regarding `Cn1cnnc1COc1cccc(-n2cc3c(C(F)(F)F)cc(Br)cn3c2=O)c1` [Compound 181], the concentration for half-maximal inhibition (IC50) was above 10000 nM.
Consider `CN1CCC(O)(c2cc(C(F)(F)F)c3cn(-c4cccc(C5(Cc6nncn6C)COC5)c4)c(=O)n3c2)CC1` [Compound 182], for which the IC50 fell in the range of 301 to 1000 nM.
Turning to `C[C@H]1CCCN(Cc2cc(C(F)(F)F)c3cn(-c4cc(C#N)cc(C5(Cc6nncn6C)COC5)c4)c(=O)n3c2)C1` [Compound 183], the IC50 is below 100 nM.
`CC1CC(c2cccc(-n3cc4c(C(F)(F)F)cc(C#N)cn4c3=O)c2)(c2nncn2C)C1` (centres unmarked) [Compound 184]: the IC50 was below 100 nM.
Take `Cc1conc1CC1(c2cccc(-n3cc4c(C(F)(F)F)cc(CN5CCC[C@H](C)C5)cn4c3=O)c2)COC1` [Compound 185]: the half-maximal inhibitory concentration (IC50) lay in the range of 100 to 300 nM.
As to `CN1CC(Cc2nncn2C)(c2cccc(-n3cc4c(C(F)(F)F)cccn4c3=O)c2)C1` [Compound 188], the half-maximal inhibitory concentration (IC50) is above 10000 nM.
As for `Cc1cn(C)nc1CC1(c2cccc(-n3cc4c(C(F)(F)F)cc(CN5CCC[C@H](C)C5)cn4c3=O)c2)COC1` [Compound 197], the IC50 is 3000 to 10000 nM.
For `[2H]C([2H])([2H])n1cnnc1CC1(c2cccc(-n3cc4c(C(F)(F)F)cc(CN5CCC[C@H](C)C5)cn4c3=O)c2)COC1` [Compound 198], the IC50 is below 100 nM.
For the compound `[2H]C([2H])([2H])n1cnnc1CC1(c2cccc(-n3cc4c(C(F)(F)F)cc(CN5CCO[C@H](C)C5)cn4c3=O)c2)COC1` [Compound 199], the IC50 was below 100 nM.
As to `C[C@H]1CCCN(Cc2cc(C(F)(F)F)c3cn(-c4cccc(OCc5nncn5C)c4)c(=O)n3c2)C1` [Compound 200], the IC50 is above 10000 nM.
`C[C@@H]1CN(Cc2cc(C(F)(F)F)c3cn(-c4cccc(C5(Cc6nncn6C)COC5)c4)c(=O)n3c2)C[C@@H](C)O1` [Compound 201]: the IC50 is below 100 nM.
In the case of `Cn1cnnc1CC1(c2cccc(-n3cc4c(C(F)(F)F)cc(CN5CCCC(O)C5)cn4c3=O)c2)COC1` (centres unmarked) [Compound 206] it was 301 to 1000 nM; in that of `Cc1c[nH]nc1CC1(c2cccc(-n3cc4c(C(F)(F)F)cc(CN5CCC[C@H](C)C5)cn4c3=O)c2)COC1` [Compound 207], below 100 nM.
For `CC(=O)N(c1cccc(-n2cc3c(C(F)(F)F)cccn3c2=O)c1)c1nncn1C` [Compound 208] the value was above 10000 nM; for `[2H]c1nnc(CC2(c3cccc(-n4cc5c(C(F)(F)F)cc(CN6CCC[C@H](C)C6)cn5c4=O)c3)COC2)n1C` [Compound 209], below 100 nM; for `O=c1n(-c2cccc(C3(Cc4nnc5n4CCC5)COC3)c2)cc2c(C(F)(F)F)cccn12` [Compound 210], above 10000 nM.
For the compound `Cn1cnnc1N(c1cccc(-n2cc3c(C(F)(F)F)cccn3c2=O)c1)C1COC1` [Compound 211], the IC50 lay within 1000 to 3000 nM.
In the case of `Cn1cnnc1[C@]1(c2cccc(-n3cc4c(C(F)(F)F)cc(C#N)cn4c3=O)c2)C[C@H](C)C1` [Compound 212] it was 100 to 300 nM; in that of `Cn1cnnc1[C@]1(c2cccc(-n3cc4c(C(F)(F)F)cc(CN5CC[C@H](F)C5)cn4c3=O)c2)C[C@@H](C)C1` [Compound 216], below 100 nM; in that of `Cc1c[nH]nc1[C@@H](c1cccc(-n2cc3c(C(F)(F)F)cc(CN4CCC[C@H](C)C4)cn3c2=O)c1)C1CCC1` [Compound 219], below 100 nM.
`Cc1c[nH]nc1[C@H](c1cccc(-n2cc3c(C(F)(F)F)cc(CN4CCO[C@H](C)C4)cn3c2=O)c1)C1CCC1` [Compound 220]: the IC50 lay in the range of 3000 to 10000 nM.
On to `Cc1c[nH]nc1[C@@H](c1cccc(-n2cc3c(C(F)(F)F)cc(CN4CCO[C@H](C)C4)cn3c2=O)c1)C1CCC1` [Compound 221], for which the 50% inhibitory concentration (IC50) fell in the range of 100 to 300 nM.
`COC1CCN(Cc2cc(C(F)(F)F)c3cn(-c4cccc([C@H](c5nncn5C)C5CCC5)c4)c(=O)n3c2)CC1` [Compound 225]: the IC50 is below 100 nM.
As for `Cn1cnnc1[C@]1(c2cccc(-n3cc4c(C(F)(F)F)cc(CN5CC6(CC6)C5)cn4c3=O)c2)C[C@@H](C)C1` [Compound 228], the half-inhibitory concentration (IC50) is below 100 nM.
For `Cn1cnnc1[C@]1(c2cccc(-n3cc4c(C(F)(F)F)cc(CN5CCC(F)CC5)cn4c3=O)c2)C[C@@H](C)C1` [Compound 229], the IC50 was below 100 nM.
For the compound `Cn1cnnc1C1(c2cccc(-n3cc4c(C(F)(F)F)cc(Br)cn4c3=O)c2)COC1` [Compound 230], the IC50 was above 10000 nM.
For `Cc1cc(-n2cc3c(C(F)(F)F)cc(Br)cn3c2=O)cc(C2(Cc3nncn3C)COC2)c1` [Compound 238] the value was 1000 to 3000 nM; for `Cc1cc(-n2cc3c(C(F)(F)F)cc(CN4CCC[C@H](C)C4)cn3c2=O)cc(C2(Cc3nncn3C)COC2)c1` [Compound 239], below 100 nM.
On to `Cc1c[nH]nc1C1(c2cccc(-n3cc4c(C(F)(F)F)cc(CN5CCO[C@H](C)C5)cn4c3=O)c2)CC2(CC2)C1` [Compound 241], for which the IC50 was 301 to 1000 nM.
For the compound `C[C@@H]1CN(Cc2cc(C(F)(F)F)c3cn(-c4cccc([C@H](c5nncn5C)C5CCC5)c4)c(=O)n3c2)CCO1` [Compound 244], the IC50 is below 100 nM.
In the case of `Cn1cnnc1[C@@H](c1cccc(-n2cc3c(C(F)(F)F)cc(CN4CCC(C)(C)C4)cn3c2=O)c1)C1CCC1` [Compound 245], the IC50 was below 100 nM.
Regarding `CC(C)CN(C)Cc1cc(C(F)(F)F)c2cn(-c3cccc([C@H](c4nncn4C)C4CCC4)c3)c(=O)n2c1` [Compound 246], the half-inhibitory concentration (IC50) was below 100 nM.
Regarding `C[C@H]1CCN(Cc2cc(C(F)(F)F)c3cn(-c4cccc([C@H](c5nncn5C)C5CCC5)c4)c(=O)n3c2)C1` [Compound 247], the IC50 is below 100 nM.
In the case of `C[C@@H]1CCN(Cc2cc(C(F)(F)F)c3cn(-c4cccc([C@H](c5nncn5C)C5CCC5)c4)c(=O)n3c2)C1` [Compound 248], the IC50 is below 100 nM.
Take `CO[C@@H]1CCN(Cc2cc(C(F)(F)F)c3cn(-c4cccc([C@H](c5nncn5C)C5CCC5)c4)c(=O)n3c2)C1` [Compound 249]: the IC50 is below 100 nM.
For `CO[C@H]1CCCN(Cc2cc(C(F)(F)F)c3cn(-c4cccc([C@H](c5nncn5C)C5CCC5)c4)c(=O)n3c2)C1` [Compound 250], the half-inhibitory concentration (IC50) was below 100 nM.
As to `CO[C@@H]1CCCN(Cc2cc(C(F)(F)F)c3cn(-c4cccc([C@H](c5nncn5C)C5CCC5)c4)c(=O)n3c2)C1` [Compound 251], the IC50 was below 100 nM.
In the case of `COC1(CNCc2cc(C(F)(F)F)c3cn(-c4cccc(C5(Cc6nncn6C)COC5)c4)c(=O)n3c2)CC1` [Compound 252] it was below 100 nM; in that of `Cn1cnnc1CC1(c2cccc(-n3cc4c(C(F)(F)F)cc(CNCC5CCCO5)cn4c3=O)c2)COC1` (centres unmarked) [Compound 253], below 100 nM.
For `Cn1cnnc1CC1(c2cc(C#N)cc(-n3cc4c(C(F)(F)F)cc(Br)cn4c3=O)c2)COC1` [Compound 254] the value was 1000 to 3000 nM.
For `C[C@H]1CCCN(Cc2cc(C(F)(F)F)c3cn(-c4cccc([C@]5(c6nncn6C)C[C@@H](O)C5)c4)c(=O)n3c2)C1` [Compound 255] the value was below 100 nM; for `Cn1cnnc1[C@@H](c1cccc(-n2cc3c(C(F)(F)F)cc(CN4CCC(=O)N4)cn3c2=O)c1)C1CCC1` [Compound 258], below 100 nM; for `CO[C@H]1CCN(Cc2cc(C(F)(F)F)c3cn(-c4cccc([C@H](c5nncn5C)C5CCC5)c4)c(=O)n3c2)C1` [Compound 259], below 100 nM.
For the compound `C[C@H]1CCCN(Cc2cc(C(F)(F)F)c3cn(-c4cccc(N(c5nncn5C)C5CCC5)c4)c(=O)n3c2)C1` [Compound 260], the IC50 is below 100 nM.
As for `Cn1cnnc1[C@@H](c1cccc(-n2cc3c(C(F)(F)F)cc(CN4CCc5ncsc5C4)cn3c2=O)c1)C1CCC1` [Compound 265], the 50% inhibitory concentration (IC50) is below 100 nM.
In the case of `CO[C@H](C)CNCc1cc(C(F)(F)F)c2cn(-c3cccc(C4(Cc5nncn5C)COC4)c3)c(=O)n2c1` [Compound 266], the IC50 is below 100 nM.
As to `Cc1c[nH]nc1[C@H](c1cccc(-n2cc3c(C(F)(F)F)cc(CN4CCO[C@H](C)C4)cn3c2=O)c1)C1COC1` [Compound 267], the IC50 is above 10000 nM.
On to `Cc1c[nH]nc1[C@@H](c1cccc(-n2cc3c(C(F)(F)F)cc(CN4CCO[C@H](C)C4)cn3c2=O)c1)C1COC1` [Compound 268], for which the IC50 was above 10000 nM.
In the case of `C[C@H]1CCCN(Cc2cc(C(F)(F)F)c3cn(-c4cccc([C@@H](c5nnc[nH]5)C5CCC5)c4)c(=O)n3c2)C1` [Compound 269] it was below 100 nM; in that of `C[C@H]1CCCN(Cc2cc(C(F)(F)F)c3cn(-c4cccc([C@H](c5ncn[nH]5)C5CCC5)c4)c(=O)n3c2)C1` [Compound 270], above 10000 nM.
As to `CN(Cc1cc(C(F)(F)F)c2cn(-c3cccc([C@H](c4nncn4C)C4CCC4)c3)c(=O)n2c1)Cc1cncs1` [Compound 275], the IC50 is below 100 nM.
For `Cn1cnnc1[C@@H](c1cccc(-n2cc3c(C(F)(F)F)cc(CN4CC5(CSC5)C4)cn3c2=O)c1)C1CCC1` [Compound 276], the IC50 is below 100 nM.
In the case of `Cc1cc(-n2cc3c(C(F)(F)F)cc(CN4CCO[C@H](C)C4)cn3c2=O)cc(C2(Cc3nncn3C)COC2)c1` [Compound 277] it was above 10000 nM.
On to `[2H]C([2H])([2H])n1cnnc1CC1(c2cccc(-n3cc4c(C(F)(F)F)cc([C@H](C)N5CCC[C@H](C)C5)cn4c3=O)c2)COC1` [Compound 278_P1], for which the IC50 was below 100 nM.
For `[2H]C([2H])([2H])n1cnnc1CC1(c2cccc(-n3cc4c(C(F)(F)F)cc([C@@H](C)N5CCC[C@H](C)C5)cn4c3=O)c2)COC1` [Compound 278_P2] the value was below 100 nM; for `C[C@@H]1CN(Cc2cc(C(F)(F)F)c3cn(-c4cccc(C5(c6nncn6C)CC(F)(F)C5)c4)c(=O)n3c2)CCO1` [Compound 279], 301 to 1000 nM; for `Cc1c[nH]nc1[C@H](c1cccc(-n2cc3c(C(F)(F)F)cc(CN4CCC[C@H](C)C4)cn3c2=O)c1)C1COC1` [Compound 280], above 10000 nM.
As to `Cc1c[nH]nc1[C@@H](c1cccc(-n2cc3c(C(F)(F)F)cc(CN4CCC[C@H](C)C4)cn3c2=O)c1)C1COC1` [Compound 281], the IC50 was above 10000 nM.
`Cn1cnnc1[C@@H](c1cccc(-n2cc3c(C(F)(F)F)cc(CN4CC[C@H](C(F)(F)F)C4)cn3c2=O)c1)C1CCC1` [Compound 284]: the IC50 lay within 301 to 1000 nM.
